Literature values in patent US20170196789A1, “REDUCTION OF ORAL AND EPIDERMAL MALODOR IN HUMANS AND ANIMALS” (priority 2014, published 2017).

Experiments:
[1] = after adhesion to the mucus membrane surface
[2] = in vivo
[3] = chlorhexidine exposure, current animal research

For `[H]/N=C(\N/C(=N/[H])NCCCCCCNC(=N)NC(=N)Nc1ccc(Cl)cc1)Nc1ccc(Cl)cc1` [chlorhexidine, Chlorhexidine], the “share of the total consumed amount remaining in the oral cavity” value [1] is given as “Approximately thirty”, the “absorption through the digestive system” value [2] is given as “minimal” and the “toxic and/or cancerous effects in animals” value [3] is given as “does not demonstrate any evidence of toxic and/or cancerous effects”.
